US20050208512A1, “Determining the chemosensitivity of cells to cytotoxic agents” (The Ohio State University Research Foundation, priority 2003, published 2005)
Entries after “also recorded” stand apart in the source; their conditions may differ. Read-outs that look alike come from different tables or passages of the source.

Experiments:
Type in all cases: cell-based, human
SK-MEL-28 cells = experiment: SRB cytotoxicity assay in SK-MEL-28 cells transfected with ABCB5 or mock siRNA; settings: for IC50: 4 days drug, SRB; for Fold reversal: mock vs ABCB5 siRNA; for effect of ABCB5 siRNA on chemosensitivity to the drug: result in words
Description: Human cancer cells were transfected with ABCB1, ABCB5 or mock siRNA. Drug activity was measured with the SRB assay. […] Results represent the mean of two or mean±SD of at least three independent experiments.
To identify suitable ABCB5 domains for siRNA-mediated gene silencing, siRNA duplexes against three target domains were synthesized and transfected into SK-MEL-28 cells.
Transfection was performed with TransMessenger Transfection Reagent (QIAGEN). To down-regulate ABCB1 or ABCB5, cancer cells were transfected with 0.3 or 0.6 μM siRNA. For RNA extraction, cells were harvested 48 hours after transfection.
(§1) Cytotoxicity assay. 5FU, Camptothecin, and Mitoxathone were obtained from Sigma. The other compounds were from Developmental Therapeutics Program at NCI. […] Anticancer drugs were added in a dilution series in 6 replicated wells. After 4 days, incubation was terminated by replacing the medium with 100 μl 10% trichloroacetic acid (Sigma, St. Louis, Mo.) in 1×PBS, followed by incubation at 4° C. for at least 1 hour. Subsequently, the plates were washed with water and air-dried. The plates were stained with 100 μl 0.4% SRB (Sigma) in 1% acetic acid for 30 min at room temperature. Unbound dye was washed off with 1% acetic acid. After air-drying and re-solubilization of the protein-bound dye in 10 mM Tris-HCl (pH 8.0), absorbance was read by a micro-plate reader at 570 nm. To determine the IC50 values, the absorbance of control cells without drug was set at 1. Dose-response curves were plotted using SigmaPlot software (RockWare, Golden, Colo.). Each experiment was performed independently at least three times.

NCI/ADR-RES cells = experiment: SRB cytotoxicity assay in NCI/ADR-RES cells transfected with ABCB1 or mock siRNA; settings: for Fold reversal: mock vs ABCB1 siRNA; for effect of ABCB1 siRNA on chemosensitivity to the drug: result in words
Description: (§2) Human cancer cells were transfected with ABCB1, ABCB5 or mock siRNA. Drug activity was measured with the SRB assay. IC50 is the concentration that produced 50% inhibition of cell growth compared to controls. Results represent the mean of two or mean±SD of at least three independent experiments.
(§3) We next compared growth-inhibitory IC50 values of siRNA-treated to that of mock-treated cells using a sulforhodamine B (SRB) cell proliferation assay.
(§4) Cell lines, obtained from Division of Cancer Treatment and Diagnosis at NCI, were cultured in RPMI 1640 containing 10% heat-inactivated fetal calf serum in a 5% CO2 incubator at 37° C. Transfection was performed with TransMessenger Transfection Reagent (QIAGEN). To down-regulate ABCB1 or ABCB5, cancer cells were transfected with 0.3 or 0.6 μM siRNA. For RNA extraction, cells were harvested 48 hours after transfection.
as §1

HCT-15 cells = experiment: SRB cytotoxicity assay in HCT-15 cells transfected with ABCB1 or mock siRNA; settings: for Fold reversal: mock vs ABCB1 siRNA
Description: as §2, §3, §4, §1

[1] = Homo sapiens, 96 h, ABCB5 siRNA, read-out: IC50 (μM) siRNA
[2] = Homo sapiens, 96 h, mock siRNA, read-out: IC50 (μM) Mock
[3] = Homo sapiens, 96 h, NCI/ADR-RES cells, ABCB1 siRNA, 4 days drug, SRB, read-out: IC50 (μM) siRNA
[4] = Homo sapiens, 96 h, NCI/ADR-RES cells, mock siRNA, 4 days drug, SRB, read-out: IC50 (μM) Mock
[5] = ABCB5 siRNA, read-out: IC50 (μM) siRNA
[6] = mock siRNA, read-out: IC50 (μM) Mock
[7] = Homo sapiens, 96 h, HCT-15 cells, ABCB1 siRNA, 4 days drug, SRB, read-out: IC50 (μM) siRNA
[8] = Homo sapiens, 96 h, HCT-15 cells, mock siRNA, 4 days drug, SRB, read-out: IC50 (μM) Mock

| SMILES | Fold reversal (SK-MEL-28 cells) | effect of ABCB5 siRNA on chemosensitivity to the drug (SK-MEL-28 cells) | IC50 (NCI/ADR-RES cells; [3]) | IC50 (NCI/ADR-RES cells; [4]) | Fold reversal (NCI/ADR-RES cells; NCI/ADR-RES cells) | Fold reversal (HCT-15 cells; HCT-15 cells) | further results |
| --- | --- | --- | --- | --- | --- | --- | --- |
| O=c1[nH]cc(F)c(=O)[nH]1 [5FU, fluorouracil] | 1.96 ± 0.16 | Enhanced chemosensitivity | 1000 µM | 900 µM | 0.90 |  | IC50 (SK-MEL-28 cells; [1]): 6.43 ± 2.67 µM; IC50 (SK-MEL-28 cells; [2]): 12.4 ± 4.6 µM; effect of ABCB1 siRNA on chemosensitivity to the drug (NCI/ADR-RES cells; NCI/ADR-RES cells): unaffected; also recorded: no effect on potency |
| COc1cc(NS(C)(=O)=O)ccc1Nc1c2ccccc2nc2ccccc12 [AMSA] |  | no change in potency |  |  |  |  |  |
| CCS(=O)(=O)O.CN(C)C(=O)c1cccc(COc2ccc(N3C(N)=NC(N)=NC3(C)C)cc2Cl)c1 [Baker's antifol, Baker's-soluble-antifol] |  |  |  |  | 3.23 ± 0.45 | 1.47 ± 0.29 | IC50 (NCI/ADR-RES cells; NCI/ADR-RES cells, ABCB1 siRNA, 4 days drug, SRB, read-out: IC50 (μM) siRNA): 131 ± 36.7 µM; IC50 (NCI/ADR-RES cells; NCI/ADR-RES cells, mock siRNA, 4 days drug, SRB, read-out: IC50 (μM) Mock): 420 ± 120 µM; IC50 (HCT-15 cells; HCT-15 cells, ABCB1 siRNA, 4 days drug, SRB, read-out: IC50 (μM) siRNA): 33.7 ± 6.23 µM; IC50 (HCT-15 cells; HCT-15 cells, mock siRNA, 4 days drug, SRB, read-out: IC50 (μM) Mock): 48.2 ± 5.18 µM |
| C(=N\NC1=NCCN1)/c1c2ccccc2c(/C=N/NC2=NCCN2)c2ccccc12 [Bisantrene] |  |  |  |  | >4.22 | 1.39 | IC50 (NCI/ADR-RES cells; Homo sapiens, NCI/ADR-RES, 96 h, read-out: IC50 (μM) Mock): > 100 µM; IC50 (NCI/ADR-RES cells; Homo sapiens, NCI/ADR-RES, 96 h, read-out: IC50 (μM) siRNA): 23.7 µM; IC50 (HCT-15 cells; Homo sapiens, HCT-15, 96 h, read-out: IC50 (μM) Mock): 7.63 µM; IC50 (HCT-15 cells; Homo sapiens, HCT-15, 96 h, read-out: IC50 (μM) siRNA): 5.47 µM |
| CC[C@@]1(O)C(=O)OCc2c1cc1n(c2=O)Cc2cc3cc(O)ccc3nc2-1 [CPT,10-OH] | 3.62 ± 1.35 | Enhanced chemosensitivity |  |  |  |  | IC50 (SK-MEL-28 cells; [5]): 0.14 ± 0.02 µM; IC50 (SK-MEL-28 cells; [6]): 0.48 ± 0.12 µM |
| CC[C@@]1(O)C(=O)OCc2c1cc1n(c2=O)Cc2cc3ccccc3nc2-1 [Camptothecin] | 2.17 |  |  |  |  |  | IC50 (SK-MEL-28 cells; [1]): 0.06 µM; IC50 (SK-MEL-28 cells; [2]): 0.13 µM |
| COC1=C2C[C@@H](C)C[C@H](OC)[C@H](O)[C@@H](C)/C=C(\C)[C@H](OC(N)=O)[C@@H](OC)/C=C\C=C(/C)C(=O)NC(=CC1=O)C2=O [Geldanamycin, geldanamycin] |  |  | 3.6 ± 0.6 µM | 6.84 ± 1.08 µM | 1.95 ± 0.45 | 1.26 ± 0.14 | IC50 (HCT-15 cells; [7]): 8.2 ± 3.88 µM; IC50 (HCT-15 cells; [8]): 9.91 ± 3.96 µM |
| O=C1c2c(O)ccc(O)c2C(=O)c2c(NCCNCCO)ccc(NCCNCCO)c21 [Mitoxathone] | 1.37 | no change in potency; also recorded: no effect on potency |  |  |  |  | IC50 (SK-MEL-28 cells; [5]): 0.79 µM; IC50 (SK-MEL-28 cells; [6]): 1.08 µM |
| CC(=O)O[C@H]1C(=O)[C@@]2(C)[C@H]([C@H](OC(=O)c3ccccc3)[C@]3(O)C[C@H](OC(=O)[C@H](O)[C@@H](NC(=O)c4ccccc4)c4ccccc4)C(C)=C1C3(C)C)[C@]1(OC(C)=O)CO[C@@H]1C[C@@H]2O [Palitaxel, Paclitaxel] |  |  | 1.06 µM | 8.01 µM | 7.57 | 1.72 | effect of ABCB1 siRNA on chemosensitivity to the drug (NCI/ADR-RES cells; NCI/ADR-RES cells): Enhanced chemosensitivity; IC50 (HCT-15 cells; [7]): 0.18 µM; IC50 (HCT-15 cells; [8]): 0.31 µM |
